Experiments:
[1] = system: Triploid Arabidopsis thaliana (Col-0) embryos; experiment: in vitro embryo rescue of interploidy hybridization (Col 2x x Col 4x), embryo survival; assay type: cell-based; settings: for embryo appearance and growth: MS medium supplemented with the sugar, majority of triploid embryos (FIGS. 1C-1H)
Description: (§1) Seeds of Arabidopsis and Capsella were surface sterilized (5% sodium hypochlorite, 0.05% Triton X-100) for 10 min, washed three times in sterile ddH2O and then plated on half Murashige and Skoog (MS) medium, i.e., MS medium as defined below but half the concentration of the included ingredients. After stratification for 3 day at 4° C., plants were grown in a growth room under long-day photoperiod (16 hours light and 8 hours darkness) at 22° C. Eight-day-old seedlings were transferred to soil and plants were grown in a growth room at 60% humidity and daily cycles of 16 hours light at 22° C. and 8 hours darkness at 18° C. For crosses, designated female flower buds were emasculated, and the pistils hand-pollinated at 2 days after emasculation.
(§2) • 70% Ethanol; • Sterilizing solution (5% sodium hypochlorite+0.01% (v/v) of Triton X-100 or TWEEN® 20); • Autoclaved water; • Murashige & Skoog (MS) medium (Murashige and Skoog 1962): MS basal salt mixture 4.4 g/L, 0.7% plant agar, pH 5.8 and vitamins (glycine 2 mg/I, myo-inositol 100 mg/I, nicotinic acid 0.5 mg/I, pyridoxine HCl 0.5 mg/I and thiamine HCl 0.1 mg/I); • Nitsch medium (Nitsch & Nitsch 1969): basal salt mixture 2.1 g/L, 0.7% plant agar, pH 5.8 and vitamins (biotin 0.05 mg/I, folic acid 0.5 mg/I, glycine 2 mg/I, myo-inositol 100 mg/I, nicotinic acid 5 mg/I, pyridoxine HCl 0.5 mg/I and thiamine HCl 0.5 mg/I);
(§3) Triploid Arabidopsis seeds were derived from crossing diploid Arabidopsis females with tetraploid Arabidopsis pollen donors. Interspecific hybrid Capsella seeds were derived from crossing Capsella rubella females with Capsella grandiflora pollen donors. Hybrid embryos were isolated at the torpedo stage, at around 8 to 9 days after pollination (DAP) for Arabidopsis and 9 to 10 DAP for Capsella.
Under a sterile hood, the siliques of the crosses were incubated for 30 s in 70% ethanol, 30 s in sterilizing solution and 30 s in sterile water. […] Under a dissection microscope, the silique was opened with fine needles, and all seeds were transferred on the wet filter paper. The embryos were gently dissected and placed on the filter paper. During the dissection, the embryos and seeds should not become desiccated. The plates were sealed with Millipore tape and incubated under long-day photoperiod (16 hours light and 8 hours darkness) at 22° C.
After 5-7 days culture on MS medium with trehalose for Arabidopsis or 7-10 days for Capsella, viable embryos could be recognized by their green color and increased size that corresponded to the size of embryos at the bent cotyledon stage (FIG. 1J). Viable embryos were then transferred to Nitsch medium containing lower concentrations of trehalose, 1.5% (w/v) for Arabidopsis, 3% (w/v) for Capsella. Embryos were transferred from MS medium to Nitsch medium after two weeks. Transfer to Nitsch medium reduced vitrification, which is a frequently occurring phenomenon in tissue-cultured plants causing excessive hydration of tissues and reducing survival rate. Continued growth on MS medium for 3 weeks caused vitrification in Arabidopsis and Capsella seedlings (FIGS. 1L, 2I), but this phenomenon was suppressed by transfer to Nitsch medium (FIGS. 1M, 2J). After about two weeks of incubation, the initiation of roots could be observed (FIG. 1K) and the plantlets could be transferred to soil and continued to grow under long-day photoperiod (16 h light/8 h dark) at 22° C. in a growth room. […]

[2] = system: Hybrid embryos of Capsella (Capsella rubella×Capsella grandiflora); experiment: in vitro embryo rescue of interspecies hybrids, embryo survival; assay type: cell-based; settings: for effect on embryo survival: MS medium supplemented with the sugar (FIG. 2A); for embryo appearance and growth: MS medium supplemented with the sugar, majority of embryos (FIGS. 2C-2H)
Description: as §1, §2, §3
Under a sterile hood, the siliques of the crosses were incubated for 30 s in 70% ethanol, 30 s in sterilizing solution and 30 s in sterile water. The siliques were placed on MS medium supplemented with 3% (w/v) trehalose overlaid with a filter paper and several drops of sterile liquid MS medium were added on the silique. Under a dissection microscope, the silique was opened with fine needles, and all seeds were transferred on the wet filter paper. The embryos were gently dissected and placed on the filter paper. During the dissection, the embryos and seeds should not become desiccated. The plates were sealed with Millipore tape and incubated under long-day photoperiod (16 hours light and 8 hours darkness) at 22° C.
After 5-7 days culture on MS medium with trehalose for Arabidopsis or 7-10 days for Capsella, viable embryos could be recognized by their green color and increased size that corresponded to the size of embryos at the bent cotyledon stage (FIG. 1J). Viable embryos were then transferred to Nitsch medium containing lower concentrations of trehalose, 1.5% (w/v) for Arabidopsis, 3% (w/v) for Capsella. Embryos were transferred from MS medium to Nitsch medium after two weeks. Transfer to Nitsch medium reduced vitrification, which is a frequently occurring phenomenon in tissue-cultured plants causing excessive hydration of tissues and reducing survival rate. Continued growth on MS medium for 3 weeks caused vitrification in Arabidopsis and Capsella seedlings (FIGS. 1L, 2I), but this phenomenon was suppressed by transfer to Nitsch medium (FIGS. 1M, 2J). After about two weeks of incubation, the initiation of roots could be observed (FIG. 1K) and the plantlets could be transferred to soil and continued to grow under long-day photoperiod (16 h light/8 h dark) at 22° C. in a growth room.
To rescue interspecific hybrids of Capsella, the protocol was the same as above for A. thaliana but with minor changes for the trehalose concentration. Hybrid embryos of Capsella (Capsella rubella×Capsella grandiflora) were dissected at the torpedo stage under a stereomicroscope under sterile conditions on a laminar flow bench. […]

rice triploid embryos = experiment: rescue of triploid rice embryos, embryo survival; assay type: cell-based, Oryza sativa L. cv. Suitou nourin 8
Description: To obtain triploids of cultivated rice (Oryza sativa L. cv. Suitou nourin 8), diploid plants (JP9838) were emasculated and pollinated with pollen from tetraploid plants (JP7525). Triploid hybrid embryos were dissected under sterile conditions at 10-12 days after pollination (DAP) under a stereomicroscope. The isolated embryos were cultured in vitro on MS medium supplemented with 1.5% (w/v, 43.8 mM) trehalose together with sucrose (1.5%) and compared to MS medium supplemented with only sucrose (3%). […] The viable triploid embryos were transferred to MS medium containing lower concentrations of trehalose (0.75% w/v) together with 2.25% (w/v) sucrose for two weeks, until the initiation of roots could be observed (FIG. 3F). The plantlets were transferred to soil and their ploidy levels were validated by flow cytometry.
Cultivated rice (Oryza sativa L. cv. Suitou nourin 8, diploid, JP9838, and cv. Suitou nourin 8, tetraploid, JP7525) seeds were obtained from the National Institute of Agrobiological Sciences in Japan (http://www.gene.affrc.go.jp). Rice seeds were grown on soil and cultivated in a phytotron. Cultivating conditions were 14 h light and 10 h dark at 30° C./21° C. with a constant humidity of 80% and light intensity of 400 μmol per m^−2 s^−1. For crossing, designated diploid plants were emasculated and pollination was performed immediately after emasculation.
Under a sterile hood, immature triploid rice seeds at 10-12 DAP were dehusked using a pair of tweezers and sterilized for 2 min in 70% ethanol, followed by 15 min in 5% sodium hypochlorite with gentle mixing, 2 min in sterile water. The seeds were placed on MS medium supplemented with 1.5% (w/v) trehalose together with 1.5% (w/v) sucrose overlaid with a filter paper. Under a dissection microscope, the seed coat was removed with fine needles, and dissected embryos were transferred on the wet filter paper. During the dissection, the embryos should not become desiccated. The plates were sealed with Millipore tape and incubated under long-day photoperiod (16 hours light and 8 hours darkness) at 22° C. After 5-7 days of culture on MS medium with trehalose, viable embryos could be recognized by their light green color and increased size (FIG. 3E), compared to aborted embryos with dark brown color (FIG. 3D). Viable embryos were then transferred to MS medium containing lower concentrations of trehalose, 0.75% (w/v) together with 2.25% (w/v) sucrose. After about two weeks of incubation, the initiation of roots could be observed (FIG. 3F) and the plantlets could be transferred to soil and grows in a phytotron.

[3] = MS medium with only sucrose (3%)

Row | SMILES | embryo appearance and growth [1] | effect on embryo survival [2] | embryo appearance and growth [2] | embryo survival rate ([1]; MS medium supplemented with 3% (w/v) sugar, embryos at torpedo stage, 14 days of in vitro culture (FIG. 1A)) | highest survival rate ([1]; plates containing 2% (w/v) trehalose, 14 days (FIG. 1B)) | hybrid embryos rescued (survival rate) ([2]; MS medium supplemented with 3% (w/v) sugar, 14 days (FIG. 2A)) [%] | highest survival rate ([2]; plates containing 6% trehalose, 14 days (FIG. 2B)) | embryos survived (rice triploid embryos; MS medium with 1.5% (w/v) trehalose together with sucrose (1.5%), after one week of culture) | embryo appearance (rice triploid embryos; MS medium with 1.5% trehalose together with 1.5% sucrose, after one week) | embryo appearance and growth (rice triploid embryos; [3]) | embryos survived (rice triploid embryos; [3])
1 | O=C[C@H](O)[C@@H](O)[C@@H](O)[C@H](O)CO [galactose] | turned from light green to white and growth was arrested | did not improve embryo survival | turned from light green to white and growth was arrested |  |  |  |  |  |  |  | 
2 | O=C(CO)[C@@H](O)[C@H](O)[C@H](O)CO [fructose] | turned from light green to white and growth was arrested | did not improve embryo survival | turned from light green to white and growth was arrested |  |  |  |  |  |  |  | 
3 | OC[C@H]1O[C@H](O[C@H]2O[C@H](CO)[C@@H](O)[C@H](O)[C@H]2O)[C@H](O)[C@@H](O)[C@@H]1O [trehalose] |  |  |  | over 70% | over 90% | 80 | over 90% | Around 30% | turning light green |  | 
4 | OC[C@H]1O[C@@](CO)(O[C@H]2O[C@H](CO)[C@@H](O)[C@H](O)[C@H]2O)[C@@H](O)[C@@H]1O [sucrose] | turned from light green to white and growth was arrested | did not improve embryo survival | turned from light green to white and growth was arrested |  |  |  |  |  |  | arrested growth and turned dark brown | none
